Reference: ChEMBL document CHEMBL4359841, “Late-Stage Functionalization of Platensimycin Leading to Multiple Analogues with Improved Antibacterial Activity in Vitro and in Vivo” (2019)
≈ marks a conversion by molar mass, not a printed value. Calls of active or inactive are those of the source. The rule behind the calls is not given here.

Assays:
[1] = test system: Staphylococcus aureus; assay: Inhibition of FabB/FabF in methicillin-resistant Staphylococcus aureus 2968 clinical isolate assessed as antibacterial activity after 16 hrs by agar dilution method
[2] = test system: Staphylococcus aureus; assay: Inhibition of FabB/FabF in methicillin-resistant Staphylococcus aureus 3108 clinical isolate assessed as antibacterial activity after 16 hrs by agar dilution method
[3] = test system: Staphylococcus aureus; assay: Inhibition of FabB/FabF in methicillin-resistant Staphylococcus aureus 3103 clinical isolate assessed as antibacterial activity after 16 hrs by agar dilution method
[4] = test system: Staphylococcus aureus; assay: Inhibition of FabB/FabF in methicillin-resistant Staphylococcus aureus 3097 clinical isolate assessed as antibacterial activity after 16 hrs by agar dilution method
[5] = test system: Staphylococcus aureus; assay: Inhibition of FabB/FabF in methicillin-resistant Staphylococcus aureus 3090 clinical isolate assessed as antibacterial activity after 16 hrs by agar dilution method
[6] = test system: Staphylococcus aureus; assay: Inhibition of FabB/FabF in methicillin-resistant Staphylococcus aureus assessed as antibacterial activity at 2 ug/disk after 18 hrs by agar disk diffusion method
[7] = test system: Staphylococcus aureus; assay: Inhibition of FabB/FabF in methicillin-resistant Staphylococcus aureus 2953 clinical isolate assessed as antibacterial activity after 16 hrs by agar dilution method
[8] = test system: Staphylococcus aureus; assay: Inhibition of FabB/FabF in methicillin-resistant Staphylococcus aureus 3112 clinical isolate assessed as antibacterial activity after 16 hrs by agar dilution method
[9] = test system: Staphylococcus aureus; assay: Inhibition of FabB/FabF in methicillin-resistant Staphylococcus aureus 3079 clinical isolate assessed as antibacterial activity after 16 hrs by agar dilution method
[10] = test system: Staphylococcus aureus; assay: Inhibition of FabB/FabF in methicillin-resistant Staphylococcus aureus 2980 clinical isolate assessed as antibacterial activity after 16 hrs by agar dilution method
[11] = test system: Staphylococcus aureus; assay: Antibacterial activity against methicillin-resistant Staphylococcus aureus infected in BALB/c mouse model of skin wound assessed as retainment of fat layers at 2 mg administered topically as ointment twice daily for 7 days and measured after 24 hrs by HE staining analysis; format: functional, organism-based
[12] = test system: Staphylococcus aureus; assay: Inhibition of FabB/FabF in methicillin-resistant Staphylococcus aureus 3196 clinical isolate assessed as antibacterial activity after 16 hrs by agar dilution method
[13] = test system: Staphylococcus aureus; assay: Inhibition of FabB/FabF in methicillin-sensitive Staphylococcus aureus 2954 clinical isolate assessed as antibacterial activity after 16 hrs by agar dilution method
[14] = test system: Staphylococcus aureus; assay: Antibacterial activity against methicillin-resistant Staphylococcus aureus infected in BALB/c mouse model of skin wound assessed as reduction in detachment of epidermis from dermis at 2 mg administered topically as ointment twice daily for 7 days and measured after 24 hrs by visual inspection method; format: functional, organism-based
[15] = test system: Staphylococcus aureus; assay: Antibacterial activity against methicillin-resistant Staphylococcus aureus infected in BALB/c mouse model of skin infection assessed as bacterial load in skin lesions at 2 mg administered topically as ointment twice daily for 7 days and measured at 24 hrs post last dose (7.9 +/- 0.9 x 10^8 CFU/g); format: functional
[16] = test system: Staphylococcus aureus; assay: Inhibition of FabB/FabF in methicillin-resistant Staphylococcus aureus 2978 clinical isolate assessed as antibacterial activity after 16 hrs by agar dilution method
[17] = test system: Staphylococcus aureus; assay: Inhibition of FabB/FabF in methicillin-sensitive Staphylococcus aureus 2955 clinical isolate assessed as antibacterial activity after 16 hrs by agar dilution method
[18] = test system: Staphylococcus aureus; assay: Antibacterial activity against methicillin-resistant Staphylococcus aureus infected in C57BL/6J mouse model of peritonitis assessed as mouse survival at 30 mg/kg, ip dosed at 1 hr and 5 hrs post infection and measured for 7 days relative to control; format: functional
[19] = test system: Staphylococcus aureus; assay: Antibacterial activity against methicillin-resistant Staphylococcus aureus infected in C57BL/6J mouse model of peritonitis assessed as mouse survival at 30 to 50 mg/kg, po administered via gavage measured after 2 days; format: functional, organism-based
[20] = test system: Staphylococcus aureus; assay: Antibacterial activity against methicillin-resistant Staphylococcus aureus infected in BALB/c mouse model of skin wound assessed as reduction in appearance of secondary scald at 2 mg administered topically as ointment twice daily for 7 days and measured after 24 hrs by visual inspection method; format: functional, organism-based
[21] = test system: Staphylococcus aureus; assay: Antibacterial activity against methicillin-resistant Staphylococcus aureus infected in C57BL/6J mouse model of peritonitis assessed as mouse survival at 20 mg/kg, ip dosed at 1 hr and 5 hrs post infection and measured for 7 days relative to control; format: functional
[22] = test system: Staphylococcus aureus; assay: Antibacterial activity against methicillin-resistant Staphylococcus aureus infected in BALB/c mouse model of skin wound assessed as retainment of dermis layers at 2 mg administered topically as ointment twice daily for 7 days and measured and after 24 hrs by HE staining analysis; format: functional, organism-based

C[C@]12C[C@@]34C=C(SC5CCCCC5)C(=O)[C@@](C)(CCC(=O)Nc5c(O)ccc(C(=O)O)c5O)[C@@H]3[C@H](C[C@@H]1C4)O2
inhibition [1]: Active
inhibition [2]: Active
inhibition [3]: Active
inhibition [4]: Active
inhibition [5]: Active
inhibition [6]: Active
inhibition [7]: Active
inhibition [8]: Active
inhibition [9]: Active
inhibition [10]: Active
Activity [11]: Active
inhibition [12]: Active
inhibition [13]: Active
Activity [14]: Active
Activity [15]: 2.7 ×10⁶ CFU/g
inhibition [16]: Active
inhibition [17]: Active
survival at 30 mg/kg [18]: 80%
Survival [19]: inactive
Activity [20]: Active
survival at 20 mg/kg [21]: 100%
Activity [22]: Active

C[C@]12C[C@@]34C=CC(=O)[C@@](C)(CCC(=O)Nc5c(O)ccc(C(=O)O)c5O)[C@@H]3[C@H](C[C@@H]1C4)O2
MIC [1]: 1 µg/mL (≈ 2.27 µM)
MIC [2]: 1 µg/mL (≈ 2.27 µM)
MIC [3]: 1 µg/mL (≈ 2.27 µM)
MIC [4]: 1 µg/mL (≈ 2.27 µM)
MIC [5]: 1 µg/mL (≈ 2.27 µM)
MIC [7]: 1 µg/mL (≈ 2.27 µM)
MIC [8]: 1 µg/mL (≈ 2.27 µM)
MIC [9]: 1 µg/mL (≈ 2.27 µM)
MIC [10]: 1 µg/mL (≈ 2.27 µM)
MIC [12]: 1 µg/mL (≈ 2.27 µM)
MIC [13]: 1 µg/mL (≈ 2.27 µM)
MIC [16]: 1 µg/mL (≈ 2.27 µM)
MIC [17]: 1 µg/mL (≈ 2.27 µM)
